Results taken from patent US7446201B2, “Substituted heteroaryl benzofuran acids” (Wyeth, priority 2003, dated 2008).
Structures can show the parent of a compound that is named as a salt.

Key:
[1] = target: T1, recombinant human plasminogen activator inhibitor-1 (PAI-1) (Homo sapiens, UniProt P05121); assay: Primary Screen for the PAI-1 Inhibition; format: biochemical; conditions: for IC50: footnote b: determined by a modification of the Primary Screen for PAI-1 Inhibition; for inhibition at 25 µM: 25 μM test compound
T1 construct: purchased Molecular Innovations, Royal Oak, Mich
T1 sequence (P05121 24-402): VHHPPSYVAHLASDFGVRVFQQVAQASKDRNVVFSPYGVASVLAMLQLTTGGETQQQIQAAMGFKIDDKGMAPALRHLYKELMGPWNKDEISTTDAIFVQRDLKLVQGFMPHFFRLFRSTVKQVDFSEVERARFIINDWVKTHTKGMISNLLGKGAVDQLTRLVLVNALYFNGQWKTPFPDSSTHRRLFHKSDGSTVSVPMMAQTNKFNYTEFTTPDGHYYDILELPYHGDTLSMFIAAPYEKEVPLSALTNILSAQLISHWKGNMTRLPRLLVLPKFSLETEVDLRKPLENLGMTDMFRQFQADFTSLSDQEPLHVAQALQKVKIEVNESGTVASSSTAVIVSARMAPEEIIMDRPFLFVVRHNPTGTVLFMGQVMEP
Procedure: Test compounds are dissolved in DMSO at a final concentration of 10 mM, then diluted 100× in physiologic buffer. The inhibitory assay is initiated by the addition of the test compound (1-100 μM final concentration, maximum DMSO concentration of 0.2%) in a pH 6.6 buffer containing 140 nM recombinant human plasminogen activator inhibitor-1 (PAI-1; Molecular Innovations, Royal Oak, Mich.). Following a 1 hour incubation at room temperature, 70 nM of recombinant human tissue plasminogen activator (tPA) is added, and the combination of the test compound, PAI-1 and tPA is incubated for an additional 30 minutes. Following the second incubation, Spectrozyme-tPA (American Diagnostica, Greenwich, Conn.), a chromogenic substrate for tPA, is added and absorbance read at 405 nm at 0 and 60 minutes. Relative PAI-1 inhibition is equal to the residual tPA activity in the presence of the test compound and PAI-1. Control treatments include the complete inhibition of tPA by PAI-1 at the molar ratio employed (2:1), and the absence of any effect of the test compound on tPA alone.

human PAI-1 = human PAI-1 (Homo sapiens, UniProt P05121); assay: Assay for Determining IC50 of Inhibition of PAI-1 (Antibody Assay); format: binding; conditions: footnote a: determined by the Antibody Assay
Chain of human PAI-1 (P05121 24-402): as above
Procedure: This assay is based upon the non-SDS dissociable interaction between tPA and active PAI-1. Assay plates are initially coated with human tPA (10 μg/ml). Test compounds are dissolved in DMSO at 10 mM, then diluted with physiologic buffer (pH 7.5) to a final concentration of 1-50 μM. Test compounds are incubated with human PAI-1 (50 ng/ml) for 15 minutes at room temperature. The tPA-coated plate is washed with a solution of 0.05% Tween 20 and 0.1% BSA, then the plate is blocked with a solution of 3% BSA. An aliquot of the test compound/PAI-1 solution is then added to the tPA-coated plate, incubated at room temperature for 1 hour, and washed. Active PAI-1 bound to the plate is assessed by adding an aliquot of a 1:1000 dilution of the 33B8 monoclonal antibody against human PAI-1, and incubating the plate at room temperature for 1 hour (Molecular Innovations, Royal Oak, Mich.). […] The plate is incubated 45 minutes at room temperature, and color development is determined at OD405 nm. The quantitation of active PAI-1 bound to tPA at varying concentrations of test compound is used to determine the IC50. Results are analyzed using a logarithmic best-fit equation. The assay sensitivity is 5 ng/ml of human PAI-1 as determined from a standard curve ranging from 0-100 ng/ml.

Compound	melting point	other results
c1ccc2oc(-c3ccc(OCc4nnn[nH]4)c4ncccc34)cc2c1 (as salt: salt) [Compound 3, 5-(1-Benzofuran-2-yl)-8-(1H-tetraazol-5-ylmethoxy)quinoline]	> 240 °C (dec.)	–
c1ccc(-c2c(-c3ccc(OCc4nnn[nH]4)c4ncccc34)oc3ccccc23)cc1 (as salt: salt) [Compound 4, 5-(3-Phenyl-1-benzofuran-2-yl)-8-quinolinyl 1H-tetraazol-5-ylmethyl ether]	> 273 °C (dec.)	–
CCCCCc1c(-c2ccc(OCc3nnn[nH]3)c3ncccc23)oc2ccccc12 (as salt: salt) [Compound 5, 5-(3-Pentyl-1-benzofuran-2-yl)-8-(1H-tetraazol-5-ylmethoxy)quinoline]	226 to 228 °C (dec.)	–
FC(F)(F)c1cc(OCc2nnn[nH]2)c2cc(-c3cc4ccccc4o3)ccc2n1 [Compound 1, 6-(1-Benzofuran-2-yl)-2-(trifluoromethyl)quinolin-4-yl 1H-tetraazol-5-ylmethyl ether]	> 225 °C (dec.)	IC50 [1]: 38.6 µM
CCCCCc1c(-c2ccc3nc(C(F)(F)F)cc(OCc4nnn[nH]4)c3c2)oc2ccccc12 [Compound 2, 6-(3-Pentyl-1-benzofuran-2-yl)-4-(1H-tetraazol-5-ylmethoxy)-2-(trifluoromethyl)-quinoline]	207 to 209 °C (dec.)	IC50 (human PAI-1): 21.5 µM
c1ccc2oc(-c3ccc(OCc4nnn[nH]4)c4ncccc34)cc2c1 [Compound 3, 5-(1-Benzofuran-2-yl)-8-(1H-tetraazol-5-ylmethoxy)quinoline]	–	inhibition at 25 µM [1]: 20%
c1ccc(-c2c(-c3ccc(OCc4nnn[nH]4)c4ncccc34)oc3ccccc23)cc1 [Compound 4, 5-(3-Phenyl-1-benzofuran-2-yl)-8-quinolinyl 1H-tetraazol-5-ylmethyl ether]	–	inhibition at 25 µM [1]: 55%
CCCCCc1c(-c2ccc(OCc3nnn[nH]3)c3ncccc23)oc2ccccc12 [Compound 5, 5-(3-Pentyl-1-benzofuran-2-yl)-8-(1H-tetraazol-5-ylmethoxy)quinoline]	–	IC50 [1]: 8.1 µM
